Results on five compounds are retold here after patent US11820961B2, “Musk compositions and methods of use thereof” (Takasago International Corporation, priority 2015, dated 2023).

The subject of data set [1] is salivary alpha-amylase. Briefly: salivary alpha-amylase level before and after a stress test (kinetic reaction assay kit). Particulars: Table 6; before vs immediately after ten minute stress test; about 10-15 panelists; DPG = +60.7%. In kind it is in vivo, human. From the text: Salivary alpha-amylase is widely used as a biomarker for acute stress. The purpose of this study was to investigate the influence of individual fragrance compounds, particularly musk compounds, on a subject's salivary alpha-amylase levels before and after exposure to a stressor. The subject sniffed each musk compound, then was exposed to a stressor. The goal was to identify one or more specific musk compounds which caused the least amount of change in salivary alpha-amylase levels or decreased a subject's salivary alpha-amylase levels compared to before administration, thereby reducing or inhibiting a response to stress stimuli. […] The p values of the control as compared to each musk compound were calculated as follows: rosamusk (p=0.0366), habanolide (p=0.1163), ambrettolide (p=0.1397).
Twelve to fourteen female panelists age 30-45 participated in this study for each of the test materials. Stress was induced using a timed ten minute mathematical/word test in a small group competition setting. The musk material was introduced at intervals during the stress test.
Saliva was collected before and immediately after the stress test. Saliva samples were assayed for salivary alpha-amylase activity using a commercially available kinetic reaction assay kit (Salimetrics®, State College, Pa.).
(§1) Fourteen female panelists age 30-45 participated in this study. Stress was induced using a timed ten minute mathematical/word test in a small group competition setting. Fragrance was introduced at intervals during the stress test. Saliva was collected before (Pre) and immediately after (Post) the stress test. Saliva samples were assayed for salivary alpha-amylase using a commercially available kinetic reaction assay kit and for salivary cortisol using a highly sensitive enzyme immunoassay kit (Salimetrics®, State College, Pa.).
(§2) Stress was induced in a number of panelists (about 10-15) for each tested compound using a timed ten minute mathematical/word test in a small group competition setting. The test compound was introduced at intervals during the stress test.
(§3) Saliva was collected before and immediately after the stress test. Saliva samples were assayed for salivary cortisol levels and salivary alpha-amylase activity using a commercially available kinetic reaction assay kit (Salimetrics®, State College, Pa.).
(§4) Methodology for number of drops. Ten to twenty-four panelists age 30-45 participated in this study. The amount of fragrance tested was divided equally and applied onto 6 blotter cards each 3 by 5 inches in size. They were weighed and placed in the test room 30 minutes before the stress test to equilibrate.
(§5) Stress was induced using a timed ten-minute mathematical/word test in a small group competition setting. The blotter cards were removed and weighed again after the stress test. […]

Data set [2] has as its system salivary cortisol. Description: salivary cortisol level before and after a stress test (enzyme immunoassay kit). The format is in vivo, human. Particulars: Table 6; before vs immediately after ten minute stress test; about 10-15 panelists; DPG = −10.9%.
Text: Salivary cortisol is widely used as a biomarker for stress. The purpose of this study was to investigate the influence of individual fragrance compounds, particularly musk compounds, on a subject's cortisol levels before and after exposure to a stressor. The subject sniffed each musk compound, then was exposed to a stressor. The goal was to identify one or more specific musk compounds which caused the least amount of change in cortisol levels or decreased a subject's cortisol levels compared to before administration, thereby reducing or inhibiting a response to stress stimuli.
as §1, §2, §3, §4, §5

A short description of data set [3]: chassis-air partition coefficient, APDO soft solid chassis. The format is physicochemical. From the text:
(§6) The chassis-air partition coefficient can be measured for materials in various chassis.
(§7) Ki,chassis-air is the chassis-air partition coefficient for component i in the fragrance formula
(§8) Ci, chassis is the concentration of component i in the product formula chassis in molarity, M
(§9) Ci, air is the concentration of component i in the headspace air in equilibrium with the formula chassis in molarity, M
(§10) For the “Example Accord” in the BC-162 shampoo chassis components, the log chassis-air partition coefficients are as listed in Table 11.

A short description of data set [4]: chassis-air partition coefficient, BC-162 shampoo chassis. In kind it is physicochemical.
Text: as §6, §7, §8, §9, §10

As for `CC(=O)C(C)CC[C@H]1CCC(C)C1(C)C` (stereo partly drawn) [3-methyl-5-((1R)-2,2,3-trimethylcyclopentyl)pentan-2-one], the “Salivary Amylase Data (change in salivary alpha-amylase)” value in data set [1] was −6.1%.

For `CC1=CCC(C/C=C(\C)CO)C1(C)C` (stereo not drawn) [Hindinol ®, (E)-2-methyl-4-(2,2,3-trimethyl-1-cyclopent-3-enyl)but-2-en-1-ol], the “Salivary Amylase Data (change in salivary alpha-amylase)” value in data set [1] is “+82.3%”. Further, the “Cortisol Data (change in salivary cortisol)” value in data set [2] is given as −25.0%.

For `CC1CCCCCCCCCCCCC(=O)C1` [L-Muscone], the “Salivary Amylase Data (change in salivary alpha-amylase)” value in data set [1] is on record as “+14.5%”. In data set [2], the “Cortisol Data (change in salivary cortisol)” value was “+25.6%”.

With `CC(=O)c1cc2c(cc1C)C(C)(C)C(C)C2(C)C` (stereo not drawn) [Phantolide, 1-(1,1,2,3,3,6-hexamethyl-2H-inden-5-yl)ethanone], the “Salivary Amylase Data (change in salivary alpha-amylase)” value in data set [1] is given as −19.2%. Further, the “Cortisol Data (change in salivary cortisol)” value in data set [2] is recorded as −12.3%.

As for `C=C.CCCCCCCCCCCC(=O)O` [ZENOLIDE, ethylene dodecanoate], the “logK, APDO Soft Solid (log chassis-air partition coefficient)” value in data set [3] was found to be 6.966. Also, in data set [4], the “logK, BC162 (log chassis-air partition coefficient)” value turned out to be 6.131.
